# Assay: solvent given as SMILES
smiles,measurement,setting,value
CN(CCO)c1ccc(/N=N/c2ccc([N+](=O)[O-])cc2)cc1,absorption maximum,in CO,487 nm
same,absorption maximum,in OCC(O)CO,509 nm
same,absorption maximum,in OCCO,498 nm
same,absorption maximum,in Oc1ccccc1,548 nm
N#Cc1c(-n2c3ccc(Br)cc3c3cc(Br)ccc32)c(C#N)c(-n2c3ccc(Br)cc3c3cc(Br)ccc32)c(-n2c3ccc(Br)cc3c3cc(Br)ccc32)c1-n1c2ccc(Br)cc2c2cc(Br)ccc21,absorption maximum,in Cc1ccccc1,374 nm
c1cc(-c2c3ccccc3c(-c3ccc4ccccc4c3)c3ccccc23)cc(-n2c3ccccc3c3ccccc32)c1,absorption maximum,in ClCCl,376 nm
CCCC1(CCC)c2ccccc2-c2ccc(-c3ccc(OC)cc3)cc21,absorption maximum,in C1CCCCC1,315 nm
N#Cc1c(-n2nnc3c2CCC2C(CC3)[C@@H]2CO)n([C@H]2C[C@H](O)[C@@H](CO)O2)c2ncnc(N)c12 (stereo not given in full),absorption maximum,in CO,287 nm
CCCCCCCC(=O)Oc1ccc2c3cccc4c(OC(=O)CCCCCCC)ccc(c5cccc1c52)c43,absorption maximum,in C1CCOC1,445 nm
same,absorption maximum,in Cc1ccccc1,448 nm
same,absorption maximum,in ClC(Cl)(Cl)Cl,448 nm
same,absorption maximum,in ClC(Cl)Cl,446 nm
same,absorption maximum,in ClCCl,445 nm
same,absorption maximum,in c1ccncc1,449 nm
Cc1ccc(C2=C3C=CC=[N+]3[B-](F)(F)n3cccc32)cc1,absorption maximum,in C1CCCCC1,500.5 nm
same,absorption maximum,in CC#N,496.5 nm
same,absorption maximum,in CCO,497.5 nm
same,absorption maximum,in CCOC(C)=O,497 nm
same,absorption maximum,in CO,496 nm
same,absorption maximum,in OCC(F)(F)F,493 nm
CCOC(=O)c1c2c3c(ccc(C)c3c3cc4c(cc13)[Si](C)(C)O[Si]4(C)C)N(C)C2=O,absorption maximum,in CC#N,380 nm
Cc1nc2cc3c4c(cccc4c2o1)C(=O)OC3=O,absorption maximum,in CCO,362 nm
CC[n+]1c(C=C2C(=O)C(C=C3N(C)c4ccccc4C3(C)C)=C2[O-])sc2ccccc21,absorption maximum,in CO,635 nm
same,absorption maximum,in ClC(Cl)Cl,649 nm
same,absorption maximum,in ClCCl,650 nm
CCOC(=O)CCOc1ccccc1C(c1c(C)[nH]c2ccccc12)c1c(C)[nH]c2ccccc12,absorption maximum,in CO,291 nm
same,absorption maximum,in O,290 nm
CC(C)[Si](C#Cc1c2cc3ccccc3cc2c(C#C[Si](C(C)C)(C(C)C)C(C)C)c2nc3c4ccccc4c(=O)c4ccccc4c3nc12)(C(C)C)C(C)C,absorption maximum,in ClCCl,615 nm
CCCCCCCCc1ccc(-c2c3cc(-c4cc(CCCCCCCC)c(-c5ccc(-c6sc(/C=C7\SC(SCC)=NC7=O)cc6CCCCCCCC)s5)s4)sc3c(-c3ccc(CCCCCCCC)s3)c3cc(-c4cc(CCCCCCCC)c(-c5ccc(-c6sc(/C=C7\SC(SCC)=NC7=O)cc6CCCCCCCC)s5)s4)sc23)s1,absorption maximum,in ClC(Cl)Cl,500 nm
F[B-]1(F)n2cccc2C(c2c3ccccc3c(-c3ccccc3)c3ccccc23)=C2C=CC=[N+]21,absorption maximum,in CC#N,502 nm
same,absorption maximum,in CCCCCC,509 nm
same,absorption maximum,in CCO,504 nm
same,absorption maximum,in CN(C)C=O,506 nm
same,absorption maximum,in Cc1ccccc1,509 nm
same,absorption maximum,in ClCCl,506 nm
ClC1=CN2C[n+]3cc(Cl)ccc3N=C2C=C1,absorption maximum,in CO,433 nm
c1ccc(-n2c3ccccc3c3cc(-n4ccc5cc(-c6ccc(C7(c8ccccc8)c8ccccc8-c8ccccc87)cc6)ccc54)ccc32)cc1,absorption maximum,in ClCCl,308 nm
CC[n+]1c(-c2ccccc2)c2cc(N)ccc2c2ccc(NC(N)=O)cc21,absorption maximum,in O,458 nm
O=C1c2cc3ccccc3cc2C2=Nc3ccc4ccccc4[n+]3[B-](F)(F)N12,absorption maximum,in ClCCl,419 nm
CC(C)(C)c1ccc2c(c1)c1cc(C(C)(C)C)ccc1n2-c1ccc(C#Cc2ccc(C=O)cc2)cc1,absorption maximum,in ClCCl,354 nm
COCCC1=Cc2nc1ccc1[nH]c(c3nc(ccc4[nH]c2cc4CCOC)C(CCOC)=C3)c2c(C(=O)OC)c(C(=O)O)ccc12,absorption maximum,in Cc1ccccc1,636 nm
N#CC1=CC(c2ccccc2)=CC(C#N)=P1(c1ccccc1)c1ccccc1,absorption maximum,in ClC(Cl)Cl,480 nm
CCOC(=O)c1c2c3c(ccc(F)c3c3cc4ccccc4cc13)N(C)C2=O,absorption maximum,in CC#N,410 nm
CC1=C2C=CC=[N+]2[B-](F)(F)n2cccc21,absorption maximum,in CCCCCC,500 nm
same,absorption maximum,in CO,494 nm
same,absorption maximum,in ClCCl,499 nm
Cc1sc(-c2ccc(-c3nc(-c4ccccc4)c(-c4ccccc4)[nH]3)cc2)c(C)c1C1=C(c2c(C)n(C)c3ccccc23)C(F)(F)C(F)(F)C1(F)F,absorption maximum,in C1CCOC1,313 nm
CCCCCCCCC1(CCCCCCCC)c2cc(-c3ccc(C=C4C(=O)c5ccccc5C4=O)cc3)ccc2-c2ccc(-c3ccc(C=C4C(=O)c5ccccc5C4=O)cc3)cc21,absorption maximum,in C1CCOC1,436 nm
same,absorption maximum,in CC(C)=O,433 nm
same,absorption maximum,in CCCCCC,419 nm
same,absorption maximum,in CS(C)=O,441 nm
same,absorption maximum,in Cc1ccccc1,429 nm
same,absorption maximum,in ClC(Cl)Cl,444 nm
CCCCNc1nc(/C=C/c2ccccc2)[n+]([O-])c2c1CCCC2,absorption maximum,in ClCCl,415 nm
CN(C)c1ccc(/C=C/c2cc[n+](CCCOCC(COCCC[n+]3ccc(/C=C/c4ccc(N(C)C)cc4)cc3)(COCCC[n+]3ccc(/C=C/c4ccc(N(C)C)cc4)cc3)COCCC[n+]3ccc(/C=C/c4ccc(N(C)C)cc4)cc3)cc2)cc1,absorption maximum,in C1COCCO1,460 nm
same,absorption maximum,in CC(C)O,479 nm
same,absorption maximum,in CCCCCCCCO,485 nm
same,absorption maximum,in CCCCO,480 nm
same,absorption maximum,in CCCO,482 nm
same,absorption maximum,in CCO,484 nm
same,absorption maximum,in CO,486 nm
same,absorption maximum,in CS(C)=O,479 nm
same,absorption maximum,in ClC(Cl)Cl,489 nm
same,absorption maximum,in ClCCl,489 nm
COc1ccc(-c2cnc(/C=C/c3ccccc3)o2)cc1OC,absorption maximum,in ClCCl,350 nm
CN1/C(=C/C=C(/C=C/c2sc3ccccc3[n+]2C)c2ccc(F)cc2)Sc2ccccc21,absorption maximum,in CCO,648 nm
same,absorption maximum,in CO,646 nm
same,absorption maximum,in CS(C)=O,656 nm
same,absorption maximum,in O,641 nm
CC(C)(C)NC(=O)c1ccc(C(=O)NC(C)(C)C)c2c1c1c3ccccc3c3ccccc3c1c1c3ccccc3c3ccccc3c21,absorption maximum,in ClCCl,388 nm
CCC1=C(C)c2cc3c(OC)cc(OC)cc3c(=O)n2C1=O,absorption maximum,in CC#N,433 nm
same,absorption maximum,in CO,433 nm
same,absorption maximum,in CS(C)=O,434 nm
same,absorption maximum,in ClC(Cl)Cl,434 nm
O=C(/C=C/c1cn(-c2ccccc2)nc1-c1ccccc1)c1c(O)c2ccccc2oc1=O,absorption maximum,in C1CCOC1,406 nm
same,absorption maximum,in C1COCCO1,405 nm
same,absorption maximum,in CCO,400 nm
same,absorption maximum,in CCOC(C)=O,402 nm
same,absorption maximum,in CN(C)C=O,381 nm
same,absorption maximum,in CO,352 nm
same,absorption maximum,in CS(C)=O,401 nm
same,absorption maximum,in Cc1ccccc1,409 nm
same,absorption maximum,in ClC(Cl)Cl,405 nm
same,absorption maximum,in ClCCl,404 nm
N#Cc1c(N2CCCCC2)cc(-c2ccccc2)c2c1C(=O)c1ccccc1-2,absorption maximum,in C1CCOC1,348 nm
COc1ccc2cc(C3=[N+]4C(=Nc5c(-c6ccc7ccccc7c6)cc(-c6ccc7cc(OC)ccc7c6)n5[B-]4(F)F)C(c4ccc5ccccc5c4)=C3)ccc2c1,absorption maximum,in ClCCl,718 nm
CCCCC1=Cc2c3ccc4cccc5ccc(c6cc(-c7ccc(N(c8ccccc8)c8ccccc8)cc7)n(c26)P1(=O)c1ccccc1)c3c45 (stereo not given),absorption maximum,in C1CCCCC1,431 nm
same,absorption maximum,in C1CCOC1,432 nm
same,absorption maximum,in C1COCCO1,432 nm
same,absorption maximum,in CC#N,428 nm
same,absorption maximum,in CC(C)=O,429 nm
same,absorption maximum,in CO,428 nm
same,absorption maximum,in Cc1ccccc1,434 nm
same,absorption maximum,in ClC(Cl)Cl,433 nm
same,absorption maximum,in ClCCl,431 nm
CCN(CC)c1ccc(-c2cc3c(s2)c(C(=O)OC)cc(=O)n3C)cc1,absorption maximum,in C1CCOC1,436 nm
same,absorption maximum,in CC#N,436 nm
same,absorption maximum,in CCO,444 nm
same,absorption maximum,in CO,444 nm
same,absorption maximum,in CS(C)=O,446 nm
same,absorption maximum,in Cc1ccccc1,434 nm
CCCCCCCCCCCCOc1cc2c3cc(OCCCCCCCCCCCC)c(OCCCCCCCCCCCC)cc3c3c(cc(OCCCCCCCCCCCC)c4nc5cc(C#Cc6ccc(OCCCC)cc6)c(C#Cc6ccc(OCCCC)cc6)cc5nc43)c2cc1OCCCCCCCCCCCC,absorption maximum,in ClC(Cl)Cl,485 nm
CC[B-]1(CC)c2cccc3c4c5c(cccc5c(c23)-c2cccc(C)[n+]21)[B-](CC)(CC)[n+]1c(C)cccc1-4,absorption maximum,in ClCCl,538 nm
COc1ccc2cc(C#Cc3ccc([N+](=O)[O-])cc3)ccc2c1,absorption maximum,in C1CCOC1,356 nm
same,absorption maximum,in ClC(Cl)Cl,360 nm
same,absorption maximum,in ClCCl,356 nm
O=C1c2cc(-n3c4ccccc4c4ccccc43)c(-n3c4ccccc4c4ccccc43)cc2C(=O)N1c1ccccc1,absorption maximum,in Cc1ccccc1,388 nm
C(=C\N1CCCC1)/c1nc2ccccc2nc1-c1ccccc1,absorption maximum,in CC#N,438 nm
CCCCCCCCN(CCCCCCCC)c1ccc(/C=C/c2ccc(C#Cc3ccc(-c4ccc(C#Cc5ccc(/C=C/c6ccc(N(CCCCCCCC)CCCCCCCC)cc6)cc5)cc4)cc3)cc2)cc1,absorption maximum,in Cc1ccccc1,406 nm
CC1=C(/C=C/c2ccccc2)C(C)=[N+]2C1=C(c1ccccc1)c1c(C)c(/C=C/c3ccccc3)c(C)n1[B-]2(F)F,absorption maximum,in ClC(Cl)Cl,575 nm
CC[N+](CC)=c1ccc2c(-c3ccccc3C(=O)O)c3oc4cc(N)ccc4c3oc-2c1,absorption maximum,in CCO,572 nm
same,absorption maximum,in ClCCl,581 nm
same,absorption maximum,in O,581 nm
c1cc2c3c(c1)-c1cccc4cccc(c14)B3c1cccc3cccc-2c13,absorption maximum,in Cc1ccccc1,466 nm
Cc1cccc2cc3c(=O)n(C)c(=O)n(C)c3nc12,absorption maximum,in CC#N,359 nm
same,absorption maximum,in CC(C)O,360 nm
same,absorption maximum,in CCO,359 nm
same,absorption maximum,in CO,361 nm
same,absorption maximum,in ClC(Cl)Cl,362 nm
same,absorption maximum,in ClCCl,362 nm
CCCC1(CCC)c2cc(C#N)ccc2-c2ccc(C#N)cc21,absorption maximum,in C1CCCCC1,319 nm
c1ccc2c(c1)[nH]c1ncccc12,absorption maximum,in CC#N,338 nm
same,absorption maximum,in CCCCCC,336 nm
CN(C)c1ccc(/C=C/C(=O)c2ccc(Cl)cc2)cc1,absorption maximum,in C1CCOC1,413 nm
same,absorption maximum,in CC#N,419 nm
same,absorption maximum,in CC(=O)O,430 nm
same,absorption maximum,in CC(C)=O,418 nm
same,absorption maximum,in CCO,429 nm
same,absorption maximum,in CN(C)C=O,427 nm
same,absorption maximum,in CO,428 nm
same,absorption maximum,in Cc1ccccc1,416 nm
same,absorption maximum,in ClC(Cl)Cl,426 nm
same,absorption maximum,in c1ccccc1,420 nm
O=C1O[B-]2(OC1=O)OC(c1ccc3ccccc3c1)=CC(c1ccc3ccccc3c1)=[O+]2,absorption maximum,in CC#N,435 nm
same,absorption maximum,in ClC(Cl)(Cl)Cl,438 nm

# — the Deep4Chem optical property database
